# Results published in PMC9682480, ““Vermellogens” and the Development of CB[8]-Based Supramolecular Switches Using pH-Responsive and Non-Toxic Viologen Analogues” (Journal of the American Chemical Society, 2022).
# Tests used:
# HFF-1 cells = assay: Cell viability assay (WST-1) in human fibroblastic cell line; assay type: cell-based
# Procedure: To conclude with this part of our work on the molecular responsiveness of the “vermellogens,” we decided to substantiate whether the bis-pyridinium core in the compounds would have or not a viologen-like reversible redox behavior. Thus, cyclic voltamograms were recorded for RaH·2Cl (2 mM) in buffered aqueous solutions at pH = 2 (0.05 M H3PO4/NaH2PO4), 7 (0.05 M NaH2PO4/Na2HPO4), and 12 (0.05 M Na2HPO4/Na3PO4). Those shown both the acidic (RaH^2+) and basic (Ra^+) forms of the “red thread” owning non-reversible redox peaks (Figure 1b).
# Fibroblast cells (HFF-1; ATTC® SCRC-1041TM) were maintained in Dulbecco’s modified eagle’s medium (DMEM) supplemented with 10% FBS and 1% P/S and kept at 37 °C in a humidified atmosphere containing 5% CO2 until their use. HFF-1 cells were seeded in 96 well-plates at an initial density of 10^4 cells/well and allowed to attach for 24 h at 37 °C. The following day, culture medium was removed, replenished by fresh medium (90 µl) and cells were exposed to different concentration of R aH·2Cl and MV (10 µl; final concentrations 0.01, 0.05, 0.1, 0.5 and 1 mM). Control conditions included cells cultured in culture medium, but in absence of compound. Cells were further incubated for 24 h at 37°C and cell viability was monitored using the tetrazolium salt (WST-1) method.6 Absorbance at 450 nm was measured using a Synergy HTX Plate Reader (Biotek, Winooski, VT, USA) and the percent of cell viability (%) was calculated as follows:
# Viability (%) = […]
# Where Asample and Anegative control depict those absorbance values measured at 450 nm in presence and in absence of compound, respectively. All conditions were tested by triplicate in two independent experiments. Data were expressed as mean ± standard deviation (SD). Statistical analysis was performed by two-ways and one-way ANOVA with Tukey’s LSD post hoc test using IBM SPSS Statistics version 23. A p ≤ 0.05 was considered statistically significant.
# Figure S 138: Compounds tested in WST-1 assay for cell viability.
# 6 Carballo-Pedrares, N.; Kattar, A.; Concheiro, A.; Alvarez-Lorenzo, C.; Rey-Rico, Niosomes-based gene delivery systems for effective transfection of human mesenchymal stem cells. A. Matter. Sci. Eng. 2021, 18, 112307.
# [1] = Halide recognition in acetonitrile (iodide); assay type: binding; settings: UV–vis titrations and 1H-NMR
# Text: (§1) Finally, diffraction-grade single crystals for RaH·2Cl could be obtained, with the solid-state structure showing hydrogen bonding between the hydrazone moiety with a chloride counterion and a crystallization water (Figure 1a).[34] Moved by this observation, and other reported evidence regarding the anion binding abilities of this type of hydrazone moieties,[30],[35] we decided to study the ability of the “red thread” RaH^2+ to recognize halide anions in acetonitrile by UV–vis titrations and ^1H-NMR. […] Conversely, the addition of increasing amounts of TBACl/Br to 33–20 μM solutions of RaH·2PF6, led to the absorption bands associated with the free form of RaH^2+ at λmax = 370 nm, decreasing in favor of new bands with a slight shift to λmax = 378 and 370 nm, tentatively assigned to RaH^2+···Cl/Br complexes and with the data fitting appropriately to 1:1 association processes (Ka = (7.03 ± 0.14)·10^4 M^–1 for Cl^–, (1.41 ± 0.07)·10^4 M^–1 for Br^–). In both cases, the results agreed with those expected for the recognition through hydrogen bonding between the hydrazone group and the anions, resulting in a bathochromic shift of the absorption band.[30],[35] […]
# (§2) NMR titrations could not be performed due to the precipitation of R aH2+ upon 2 eqv. of the corresponding salt. Spectra were recorded at 0, 0.5, 1, 2 and 4 eq. of the corresponding salt to follow the chemical shift of the […]
# [2] = Halide recognition by UV–vis titration in acetonitrile (TBACl); assay type: binding
# Text: (§3) Finally, diffraction-grade single crystals for RaH·2Cl could be obtained, with the solid-state structure showing hydrogen bonding between the hydrazone moiety with a chloride counterion and a crystallization water (Figure 1a).[34] Moved by this observation, and other reported evidence regarding the anion binding abilities of this type of hydrazone moieties,[30],[35] we decided to study the ability of the “red thread” RaH^2+ to recognize halide anions in acetonitrile by UV–vis titrations and ^1H-NMR. […] Conversely, the addition of increasing amounts of TBACl/Br to 33–20 μM solutions of RaH·2PF6, led to the absorption bands associated with the free form of RaH^2+ at λmax = 370 nm, decreasing in favor of new bands with a slight shift to λmax = 378 and 370 nm, tentatively assigned to RaH^2+···Cl/Br complexes and with the data fitting appropriately to 1:1 association processes (Ka = (7.03 ± 0.14)·10^4 M^–1 for Cl^–, (1.41 ± 0.07)·10^4 M^–1 for Br^–). […]
# as §2
# (§4) Concentration (μM) Absorbance Residual […]
# [3] = Fluoride interaction by UV–vis titration in acetonitrile (TBAF); assay type: binding; settings: 1 μM, 2:1 process
# Text: as §1, §2
# [4] = Halide recognition by UV–vis titration in acetonitrile (TBABr); assay type: binding
# Text: as §3, §2, §4
# [5] = pKa determination by UV–vis acid–base titrations in water; assay type: physicochemical; settings: for pKa value (linear fitting of pH against log absorbance ratio): 20 μM chloride salt in NaH2PO4/Na2HPO4, KHCO3/K2CO3 and Na2HPO4/Na2PO4 buffers, supplement; for pKa: aqueous phosphate and carbonate buffers, RH^2+/R^+ or MH^+/M, UV–vis titrations in water, chloride salts
# Text: Next, in our study of the stimuli-responsiveness of the “vermellogens”, we proceeded to verify the new analogues as pH-based molecular switches, by conducting UV–vis acid–base titrations in water for the compounds Ra–eH·2Cl. All the new “vermellogens” show similar π–π* main absorption bands centered at λ^1max = 366–377 nm at neutral or slightly acidic pH. An increase in the basicity of the solution produces the decrease of the aforementioned bands and the concomitant rise of new absorptions associated with the deprotonated compounds and centered at λ^2max = 460–475 nm. The pKa values obtained by the aforementioned UV–vis titrations for Ra–eH·2Cl are quite similar, showing no dependence on the substituent on the pyridinium N^+ atoms within their structures (Table 1 and Figures S115–S125). Furthermore, to evaluate the effect of the two different pyridinium heterocycles on the observed anomalous pKa’s, two analogues were prepared (Ma–bH·Cl), in which one of these moieties was substituted by a neutral phenyl ring.
# 4.2. pK a determination for Rb by UV-Vis
# (§5) Figure S 116: UV-Vis spectra for the titration of R b·2Cl at 20 μM in NaH 2PO4/Na2HPO4, KHCO3/K2CO3 and Na2HPO4/Na2PO4 buffers. On the top right: Absorption of R b+ at λ = 474 nm plotted against pH. pH V (mL) of V (mL) of V (mL) of V (mL) of V (mL) of ABS log[A474-(measured) solution A solution B solution C solution D solution E (474 ARb2+)/(ARb1+- […]
# (§6) Table S 4: Experimental data obtained for the UV-Vis titration of R b·2Cl at 20 μM in NaH2PO4/Na2HPO4, KHCO3/K2CO3 and Na2HPO4/Na2PO4 buffer. Solution A: 20 μM of R b·2Cl and 0.05 M of NaH2PO4. Solution B: 20 μM of R b·2Cl and 0.05 M of NaHPO4. Solution C: 20 μM of R b·2Cl and 0.05 M of Na2PO4. Solution D: 20 μM of R b·2Cl and 0.05 M of KHCO3. Solution E: 20 μM of R b·2Cl and 0.05 M of […]
# 4.4. pK a determination for Rc by UV-Vis
# as §5, with “119:” for “116:”, “c·2Cl” for “b·2Cl”, “c+” for “b+”, “466” for “474”, “log[A466-(measured)” for “log[A474-(measured)”, “(466 ARc2+)/(ARc+-” for “(474 ARb2+)/(ARb1+-”
# Table S 5: Experimental data obtained for the UV-Vis titration of R c·2Cl at 20 μM in NaH2PO4/Na2HPO4, KHCO3/K2CO3 and Na2HPO4/Na2PO4 buffer. Solution A: 20 μM of Rc·2Cl and 0.05 M of NaH2PO4. Solution B: 20 μM of R c·2Cl and 0.05 M of NaHPO4. Solution C: 20 μM of R c·2Cl and 0.05 M of Na2PO4. Solution D: 20 μM of R c·2Cl and 0.05 M of KHCO3. Solution E: 20 μM of R c·2Cl and 0.05 M of […]
# 4.6. pK a determination for Rd by UV-Vis
# as §5, with “122:” for “116:”, “d·2Cl” for “b·2Cl”, “d+” for “b+”, “475” for “474”, “log[A475-(measured)” for “log[A474-(measured)”, “(475 ARd2+)/(ARd1+-” for “(474 ARb2+)/(ARb1+-”
# as §6, with “6:” for “4:”, “d·2Cl” for “b·2Cl”
# 4.8. pK a determination for Re by UV-Vis
# as §5, with “125:” for “116:”, “e·2Cl” for “b·2Cl”, “e+” for “b+”, “460” for “474”, “log[A460-(measured)” for “log[A474-(measured)”, “(460 ARe2+)/(ARe1+-” for “(474 ARb2+)/(ARb1+-”
# Table S 7: Experimental data obtained for the UV-Vis titration of R e·2Cl at 20 μM in NaH2PO4/Na2HPO4, KHCO3/K2CO3 and Na2HPO4/Na2PO4 buffer. Solution A: 20 μM of R e·2Cl and 0.05 M of […]
smiles,measurement,setting,value
"C[n+]1ccc(-c2cc[n+](C)cc2)cc1 [MV^2+, paraquat, reference compound]",decrease of cell survival percentages relative to RaH^2+,"HFF-1 cells; HFF-1, from 0.5 mM",~3 fold
same,cell survival,"HFF-1 cells; HFF-1, from 0.5 mM concentration, 24 h, WST-1",severe decrease in cell survival
C[n+]1ccc(/C=N/Nc2cc[n+](C)cc2)cc1 [RaH·2PF6],interaction with I^–,[1],no interaction
same,Ka (1:1 association with Cl^–),[2],(7.03 ± 0.14)·10^4 M^–1
same,"Ka1 (first F^– equivalent, interaction with hydrazone group)",[3],(4.49 ± 0.77)·10^7 M^–1
same,Ka2 (deprotonation of the NH assisted by a second fluoride),[3],(5.43 ± 0.59)·10^7 M^–1
same,Ka (1:1 association with Br^–),[4],(1.41 ± 0.07)·10^4 M^–1
C(=N\Nc1cc[n+](Cc2ccccc2)cc1)/c1cc[n+](Cc2ccccc2)cc1 [RbH·2X],pKa value (linear fitting of pH against log absorbance ratio),[5],8.6
same,pKa,[5],8.6
C[n+]1ccc(N/N=C/c2cc[n+](Cc3ccccc3)cc2)cc1 [RcH·2X],pKa value (linear fitting of pH against log absorbance ratio),[5],8.6
same,pKa,[5],8.7
C[n+]1ccc(/C=N/Nc2cc[n+](Cc3ccccc3)cc2)cc1 [RdH·2X],pKa,[5],8.6
C/C(=N\Nc1cc[n+](C)cc1)c1cc[n+](C)cc1 [ReH·2X],pKa,[5],9.6
